Values quoted from earlier work as cited in US20080193567A1, “Pharmaceutical Canscora Diffusa-Containing Composition” (priority 2004, published 2008).

Legend:
[1] = interpreted as an effect against stress and anxiety
[2] = system: Mycobacterium tuberculosis
[3] = animal experiments

Which adaptogenic effect [1] does the source give for dichotosinin here?
Its adaptogenic effect is ““adaptogenic” effect”.

With `O=c1c2cc(O)c(O)cc2oc2cc(O)c([C@@H]3O[C@H](CO)[C@@H](O)[C@H](O)[C@H]3O)c(O)c12` [magniferin] as the compound, how does the “effect against Mycobacterium tuberculosis” value [2] read?
Its value is “small effect”.

And the spermicidal effect [3]?
Its spermicidal effect is “spermicidal effect”.

With `COc1ccc([C@@H]2CCc3c(O[C@@H]4O[C@H](CO)[C@@H](O)[C@H](O)[C@H]4O)cc(O)cc3O2)cc1OC` [Diffutin] as the compound, how does the adaptogenic effect [1] read?
Its adaptogenic effect is ““adaptogenic” effect”.

For `COc1ccc([C@@H]2CCc3c(O[C@@H]4OC(CO)[C@@H](O)[C@H](O)C4O)cc(OC)cc3O2)cc1` (some centres unmarked) [dichotosin], which adaptogenic effect [1] is on record?
Its adaptogenic effect is ““adaptogenic” effect”.
